In patent US7897563B2, “Use of oligomers and polymers for drug solubilization, stabilization, and delivery” (Soane Family Trust, priority 2001, dated 2011):

Legend:
[1] = octanol/water, nominal temperature of 25 C; from table in CRC Handbook of Chemistry and Physics; cited from earlier work
[2] = Method: Log P values measure the partitioning of a molecule between an octanol-rich and a water-rich layer in contact with one another (see CRC Handbook of Chemistry and Physics, 79th edition, Lide, ed., pp. 16-42-16-46, CRC Press, 1998; and references within, all of which are incorporated herein by reference). Log P values are measured at a nominal temperature of 25 C. More preferably, hydrophobic means having a log P value greater than about 0.5, even more preferably a log P value greater than about 1, even more preferably a log P value greater than about 1.5, and most preferably a log P value greater than about 2.

log P (estimate from a similar small molecule) [2] | Compound | log P [1]
 | CCCCOC(C)=O [butyl acetate] | 1.82
approximately 0.2 | poly(lactic acid) | 
